These are literature values, as cited in patent publication US20090088424A1, “METHODS AND COMPOSITIONS FOR CONTROLLING THE BIOAVAILABILITY OF POORLY SOLUBLE DRUGS” (priority 2007, published 2009).

As usually defined, the aqueous solubility is the dissolved amount per volume that the medium holds.

The conditions of this series: pH 8.7, 25° C.

In brackets after ≈: the same amount, converted by molar mass.

As to `O=C1Nc2ccc(Cl)cc2[C@@](C#CC2CC2)(C(F)(F)F)O1` [Efavirenz, (S)-6-chloro-4-(cyclopropylethynyl)-1,4-dihydro-4-(trifluoromethyl)-2H-3,1-benzoxazin-2-one], the aqueous solubility is 9.2 µg/mL (≈ 29.1 µM).
